Here are results for three compounds from patent publication US4975370A, “Process for preparing 14-hydroxy-6-O-methyl-erythromycin A” (Taisho Pharmaceutical Co., Ltd., priority 1986, dated 1990).

Series [1] can be described thus: Acute toxicity (LD50) in ICR mice. The conditions noted are these: mouse, in vivo, intravenous administration.
Series [2] relates to Staphylococcus aureus BB. The series can be described thus: In vivo antibacterial test, experimental infection in mouse. The conditions noted are these: Staphylococcus aureus BB infection (intraperitoneal), male ICR mice 26±1 g, drug orally, 7 days observation, probit analysis. How it is done: (§1) The in vivo antibacterial activity of 14-hydroxy-6-O-methylerythromycin A was measured by effect of treatment on experimental infectious diseases in mouse. 6-O-methylerythromycin A and erythromycin A were used as comparative drugs. Staphylococcus aureus BB and Streptococcus pneumoniae IID 553 were used as experimental infectious diseases of mouse. Ten male ICR mice, weighing 26±1 g, were used for each group to a different concentration of one drug. The bacteria were administered intraperitoneally to each groups of […] for infection. 14-hydroxy-6-O-methylerythromycin A, 6-O-methylerythromycin A and erythromycin A were administered orally to different groups of mice. After observing for 7 days, ED50 value was calculated from the number of mice serviving.
(§2) The ED50 values having 95% confidence limits were estimated by probit analysis.

Series [3] concerns Streptococcus pneumoniae IID 553. The description is as above. The conditions noted are these: Streptococcus pneumoniae IID 553 infection (intraperitoneal), male ICR mice 26±1 g, drug orally, 7 days observation, probit analysis. The protocol: as §1, §2
Series [4] concerns Gram-negative bacteria, especially Neisseria gonorroeae and Haemophilus influenzae. As to the kind of experiment: In vitro antibacterial activity (general statement). The series is classed as cell-based. The conditions noted are these: some Gram-negative bacteria.
In series [5] the test system is Gram-positive bacteria. The series is described as above. The series is classed as cell-based.
The nature of another series: Solubility. The series is classed as physicochemical.
Series [6] relates to Haemophilus influenzae J-48. The series can be described thus: In vitro antibacterial activity (MIC method of the Japan Chemotherapeutic Society). The series is classed as cell-based. The conditions noted are these: J48, read-out: MIC (minimum inhibitory concentration). The protocol:
(§3) The antibacterial activity (MIC: minimum inhibitory concentration) of 14-hydroxy-6-O-methylerythromycin A was measured according to the MIC method specified by the Japan Chemotherapeutic Society.

In series [7] the test system is Enterococcus faecalis ATCC 8043. The description is as above. The conditions noted are these: ATCC8043, read-out: MIC (minimum inhibitory concentration). The series is classed as cell-based. How it is done:
as §3

Series [8] concerns Klebsiella pneumoniae IFO 3317. Described as above. The series is classed as cell-based. The conditions noted are these: IFO3317, read-out: MIC (minimum inhibitory concentration). How it is done:
as §3

Series [9] relates to Staphylococcus epidermidis IID 866. The description is as above. The series is classed as cell-based. The conditions noted are these: IID866, read-out: MIC (minimum inhibitory concentration). The protocol:
as §3

Series [10] relates to Micrococcus luteus ATCC 9341. The series is described as above. The series is classed as cell-based. The conditions noted are these: ATCC9341, read-out: MIC (minimum inhibitory concentration). How it is done: as §3
The test system of series [11] is Escherichia coli NIHJ JC-2. The description is as above. The series is classed as cell-based. The conditions noted are these: NIHJJC2, read-out: MIC (minimum inhibitory concentration). The protocol: as §3
In series [12] the test system is Staphylococcus aureus Smith 4. The description is as above. The series is classed as cell-based. The conditions noted are these: SMITH4, read-out: MIC (minimum inhibitory concentration). The protocol:
as §3

In series [13] the test system is Staphylococcus pneumoniae IDD 552. Described as above. The series is classed as cell-based. The conditions noted are these: IDD552, read-out: MIC (minimum inhibitory concentration). How it is done:
as §3

A further series concerns Micrococcus luteus NIHJ. The description is as above. The series is classed as cell-based. The conditions noted are these: read-out: MIC (minimum inhibitory concentration). How it is done: as §3
The next series concerns Branhamella catarrhalis. The description is as above. The series is classed as cell-based. The conditions noted are these: Moraxella catarrhalis, read-out: MIC (minimum inhibitory concentration). How it is done:
as §3

The subject of series [14] is Staphylococcus aureus 209P-JC. The series is described as above. The conditions noted are these: read-out: MIC (minimum inhibitory concentration). The series is classed as cell-based. How it is done:
as §3

In series [15] the test system is Staphylococcus pneumoniae IDD 553. Described as above. The series is classed as cell-based. The conditions noted are these: IDD553, read-out: MIC (minimum inhibitory concentration). The protocol: as §3
The subject of series [16] is Bacillus subtilis ATCC 6633. The series is described as above. The conditions noted are these: ATCC6633, read-out: MIC (minimum inhibitory concentration). The series is classed as cell-based. The protocol: as §3
In series [17] the test system is Staphylococcus pyogenes IID 689. The series is described as above. The conditions noted are these: Streptococcus pyogenes, IID689, read-out: MIC (minimum inhibitory concentration). The series is classed as cell-based. The protocol:
as §3

The subject of series [18] is Staphylococcus aureus BB. Described as above. The conditions noted are these: read-out: MIC (minimum inhibitory concentration). The series is classed as cell-based. The protocol: as §3
For series [19], the system named is Neisseria gonorrhoeae TCC-4. Described as above. The conditions noted are these: TCC4, read-out: MIC (minimum inhibitory concentration). The series is classed as cell-based. How it is done: as §3
Another series concerns Salmonella enteritidis. The series is described as above. The series is classed as cell-based. The conditions noted are these: Salmonella enterica, read-out: MIC (minimum inhibitory concentration). How it is done: as §3
The subject of series [20] is Gram-positive bacteria. The series can be described thus: In vivo antibacterial activity (general statement, effective amount).

The structures appear in SMILES notation. In brackets after ≈: the same amount, converted by molar mass.

Take `CO[C@]1(C)C[C@@H](C)C(=O)[C@H](C)[C@@H](O)[C@](C)(O)[C@@H](C(C)O)OC(=O)[C@H](C)[C@@H](O[C@H]2C[C@@](C)(OC)[C@@H](O)[C@H](C)O2)[C@H](C)[C@H]1O[C@@H]1O[C@H](C)C[C@H](N(C)C)[C@H]1O` (stereo partly drawn) [14-hydroxy-6-O-methylerythromycin A]: in series [1], the LD50 came to 560 mg/kg. Moreover, the values for the ED50 (in the series with Staphylococcus aureus BB [2]; in series [3]; in the series on Gram-positive bacteria [20] (general statement)) were 0.234 mg/mouse, 0.069 mg/mouse and 3 to 10 mg/kg, respectively. The “in vitro antibacterial activity” value (in series [4]; with Gram-positive bacteria [5]) was “strong” throughout. For the same compound, the Solubility result in the series “Solubility” (in chloroform, methanol, ethanol, acetone, ethyl acetate and pyridine) is “Soluble”; in “Solubility” (in ethyl ether, n-hexane, petroleum ether, benzene and water), “Poorly soluble”. Further, the MIC in series [6] stood at 3.13 mg/L (≈ 4.1 µM); in series [7] it was 0.05 mg/L (≈ 0.0654 µM); in series [8], 25 mg/L (≈ 32.7 µM); in series [9], 0.2 mg/L (≈ 0.262 µM); in series [10], 0.025 mg/L (≈ 0.0327 µM); in series [11], 50 mg/L (≈ 65.4 µM). Besides, the MIC worked out at 0.2 mg/L (≈ 0.262 µM) in series [12]; 0.025 mg/L (≈ 0.0327 µM) in series [13]; 0.05 mg/L (≈ 0.0654 µM) in the series on Micrococcus luteus NIHJ; 0.05 mg/L (≈ 0.0654 µM) with Branhamella catarrhalis; 0.1 mg/L (≈ 0.131 µM) in [14]; 0.025 mg/L (≈ 0.0327 µM) in [15]. Besides, the MIC in series [16] was determined as 0.1 mg/L (≈ 0.131 µM); in [17] it was 0.025 mg/L (≈ 0.0327 µM); in the series on Staphylococcus aureus BB [18] it was 0.2 mg/L (≈ 0.262 µM); in series [19] it was 0.39 mg/L (≈ 0.51 µM); with Salmonella enteritidis, 25 mg/L (≈ 32.7 µM). The “in vivo antibacterial activity against some Gram-positive bacteria” value with Gram-positive bacteria [20] (compared with 6-O-methylerythromycin A) was “stronger”.

For the compound `CC[C@H]1OC(=O)[C@H](C)[C@@H](O[C@H]2C[C@@](C)(OC)[C@@H](O)[C@H](C)O2)[C@H](C)[C@@H](O[C@@H]2O[C@H](C)C[C@H](N(C)C)[C@H]2O)[C@](C)(O)C[C@@H](C)C(=O)[C@H](C)[C@@H](O)[C@]1(C)O` [Erythromycin A, erythromycin A], the ED50 came out at 2.20 mg/mouse in the series with Staphylococcus aureus BB [2] and 1.43 mg/mouse in series [3].

As for `CC[C@H]1OC(=O)[C@H](C)[C@@H](O[C@H]2C[C@@](C)(OC)[C@@H](O)[C@H](C)O2)[C@H](C)[C@@H](O[C@@H]2O[C@H](C)C[C@H](N(C)C)[C@H]2O)[C@](C)(OC)C[C@@H](C)C(=O)[C@H](C)[C@@H](O)[C@]1(C)O` [6-O-Methyl-erythromycin A, 6-O-methylerythromycin A], the ED50 in the series with Staphylococcus aureus BB [2] was 0.394 mg/mouse; in [3] it was 0.222 mg/mouse.
